Where two headings read alike, the source gives them in different places.
Experiments:
Septoria tritici = assay: Fungicidal activity, microtiter plate format; type: cell-based
Phytophthora infestans = assay: microbe, parasite or virus in culture; type: cell-based; settings: read-out: IC50 P. infestans
Botrytis cinerea = assay: Fungicidal activity, microtiter plate format; type: cell-based
Stagonospora nodorum = assay: Fungicidal activity, microtiter plate format; type: cell-based; settings: for IC50: Parastagonospora nodorum, read-out: IC50 S. nodorum
Puccinia recondita = assay: Cereal field trial on soft red winter wheat (leaf rust); type: in vivo; settings: wheat cultivar Sisson
Procedure: A field trial of Compound 4 was conducted on soft red winter wheat cultivar Sisson. Very dry weather gave rise to a low natural incidence of leaf rust (Puccinia recondita: PUCCRT) late in the trial. Compound 4 was applied as a 9.5% active ingredient (weight/weight) emulsifiable concentrate of the following formula (each weight/weight): 9.5% Compound 4, 9.5% m-Pyrol, 65% Surfadone LP-100, 6% Surfadone LP-300, 5% Toximul 3463F, and 5% Toximul 3464F. Rates of Compound 4 application were as follows (grams active ingredient per hectare: g a.i./ha): 140, 280 and 421.

Sclerotinia homoeocarpa = assay: Turf trial on creeping bentgrass (dollar spot)
Procedure: A fungicide trial was conducted on a 15-yr-old sward of creeping bentgrass v. Penncross during the spring. […] Treatments were arranged as plots (0.5×1.0 m) in a randomized complete block design with four replications. […] The turfgrass was inoculated with autoclaved tall fescue seed infested with Sclerotinia homoeocarpa (common name: dollar spot) six hours after application of the initial preventive treatments. The plots received approximately 0.24 inches of irrigation water daily at 1700 hour to ensure nightly foliar wetness for infection. The Horsfall-Barratt rating scale was used to visually estimate disease severity at approximately 7-day intervals from the initial application date. Turfgrass quality was assessed using a 0-9 scale where 0=a necrotic, thin foliar canopy and 9=a dark green, dense foliar canopy. Disease and quality values were subjected to analysis of variance and means were statistically separated using the Scott-Knott cluster analysis procedure.

[1] = fungal growth on agar, 20° C., 3-5 days, C.V. class in parentheses

SMILES | IC50 S. tritici (Septoria tritici) | IC50 (Phytophthora infestans) | IC50 S. tritici (Septoria tritici; [1]) | IC50 B. cinerea (Botrytis cinerea; [1]) | IC50 S. nodorum (Stagonospora nodorum; [1]) | other results
C[Si](C)(C)c1onc(-c2c(Cl)cccc2Cl)c1C(O)c1cccnc1 (stereo not shown) [Compound 1, 3-(2,6-Dichlorophenyl)-4-[(3-pyridyl)hydroxymethyl]-5-trimethylsilylisoxazole] | C (b) | > 100 µM | – | – | – | IC50 (Botrytis cinerea; Botrytis cinerea, read-out: IC50 B. cinerea): > 100 µM; IC50 (Stagonospora nodorum): > 100 µM
C[Si](C)(C)c1onc(-c2ccc(Cl)cc2Cl)c1C(O)c1cccnc1 (stereo not shown) [Compound 3, 3-(2,4-Dichlorophenyl)-4-[(3-pyridyl)hydroxymethyl]-5-trimethylsilylisoxazole] | A (b) | > 100 µM | – | – | – | IC50 B. cinerea (Botrytis cinerea): B (b); IC50 S. nodorum (Stagonospora nodorum): B (d)
OC(c1cccnc1)c1c(-c2ccc(Cl)cc2Cl)noc1-c1cccc(Cl)c1 (stereo not shown) [Compound 4, 5-(3-Chlorophenyl)-3-(2,4-dichlorophenyl)-4-[(3-pyridyl)hydroxymethyl]-isoxazole] | – | > 100 µM | A (c) | B (d) | A (b) | Control of leaf rust incidence (Puccinia recondita; 9.5% emulsifiable concentrate, 140, 280 and 421 g a.i./ha, low natural incidence): good control of the rust incidence; Yield enhancement (Puccinia recondita; highest rate of Compound 4): Yield enhancement was observed; Dollar spot disease control (Horsfall-Barratt disease severity) (Sclerotinia homoeocarpa; creeping bentgrass v. Penncross, Compound 4 as 25% wetable powder at 2.2, 4.4, 8.8 g a.i./1000 sq ft, mean disease <3.0% acceptable): effective control on dollar spot during most of the trial period; Turfgrass quality (0-9 scale) (Sclerotinia homoeocarpa; creeping bentgrass, ratings >6.0 acceptable): Highest quality ratings
CC(C)(C)c1onc(-c2ccc(Cl)cc2Cl)c1C(O)c1cccnc1 (stereo not shown) [Compound 7, 3-(2,4-Dichlorophenyl)-5-(1,1-dimethylethyl)-4-[(3-pyridyl)hydroxymethyl]-isoxazole] | – | > 100 µM | – | B (c) | – | IC50 (Septoria tritici; Zymoseptoria tritici, fungal growth on agar, 20° C., 3-5 days, C.V. class in parentheses, read-out: IC50 S. tritici): > 100 µM; IC50 (Stagonospora nodorum; [1]): > 100 µM
OC(c1cccnc1)c1c(-c2ccc(Cl)cc2Cl)noc1-c1cccs1 (stereo not shown) [Compound 12, 3-(2,4-Dichlorophenyl)-4-[(3-pyridyl)hydroxymethyl]-5-(2-thienyl)isoxazole] | – | > 100 µM | A (b) | B (c) | B (d) | –
OC(c1cccnc1)c1c(-c2ccc(Cl)cc2Cl)noc1-c1ccsc1 (stereo not shown) [Compound 13, 3-(2,4-Dichlorophenyl)-4-[(3-pyridyl)hydroxymethyl]-5-(3-thienyl)isoxazole] | – | > 100 µM | A (b) | B (b) | B (d) | –

Source: patent US7977341B2, “Substituted isoxazoles as fungicides” (Syngenta Limited, priority 2004, dated 2011)
